# In patent publication US10703733B2, “MCL-1 inhibitors” (Gilead Sciences, Inc., priority 2018, dated 2020):
# Columns and labels:
# SKBR3 cells = assay: SKBR3 Cell Viability Assay (CellTiter Glo); format: cell-based; conditions: Homo sapiens, SK-BR-3, 72 h, CellTiter Glo luminescence, read-out: MCL-1 CV SKBR3 EC50
# How it was run: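 SKBR3 cells (6,000/well) in McCoy 5A + 10% FBS exposed to serially diluted compound for 72 h at 37° C., 5% CO2. Viability by CellTiter Glo luminescence; % inhibition normalized to DMSO (negative) and 10 μM puromycin (positive).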
# [1] = target: MCL-1/Bim interaction (recombinant human MCL-1 protein, residues 171-327; biotinylated human Bim peptide, residues 51-76) (Homo sapiens (Human), UniProt Q07820); assay: MCL-1/Bim Binding AlphaLISA Assay; conditions: 0.0625 nM 6xHis-Mcl-1 (171-327), 0.0625 nM biotinylated-Bim peptide
# How it was run: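 AlphaLISA with 0.0625 nM His-tagged MCL-1 and 0.0625 nM biotin-Bim peptide in 20 mM Hepes pH 7.5, 150 mM NaCl, 0.002% Brij 35, 1 mM DTT, 0.01% BSA. Compound preincubated 1 h with MCL-1, Bim added for 2 h, then acceptor and donor beads 1 h each.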
# MCL-1/Bim interaction (recombinant human MCL-1 protein, residues 171-327; biotinylated human Bim peptide, residues 51-76), sequence (Q07820 171-327): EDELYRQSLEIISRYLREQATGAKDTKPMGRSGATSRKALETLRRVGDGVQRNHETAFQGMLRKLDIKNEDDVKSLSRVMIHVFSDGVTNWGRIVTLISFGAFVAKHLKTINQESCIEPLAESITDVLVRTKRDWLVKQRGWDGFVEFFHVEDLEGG
Compound,EC50 (SKBR3 cells),IC50 [1]
"CO[C@H]1/C=C/C[C@H](C)C[S@@](=O)(NC(=O)N[C@H]2C[C@@]2(C)OC)=NC(=O)c2ccc3c(c2)N(C[C@@H]2CC[C@H]21)C[C@@]1(CCCc2cc(Cl)ccc21)CO3 (single isomer, unassigned) [Example 313]",94.5 nM,0.064 nM
COC(=O)N[C@H](C(=O)N1CCN(C(=O)N[S@@]2(=O)=NC(=O)c3ccc4c(c3)N(C[C@@H]3CC[C@H]3[C@@H](OC)/C=C/C[C@H](C)C2)C[C@@]2(CCCc3cc(Cl)ccc32)CO4)C[C@@H]1C)C(C)C [Example 285],79.7 nM,0.131 nM
COC1CN(c2nn(C)cc2C(=O)N[S@@]2(=O)=NC(=O)c3ccc4c(c3)N(C[C@@H]3CC[C@H]3[C@@H](OC)/C=C/C[C@H](C)C2)C[C@@]2(CCCc3cc(Cl)ccc32)CO4)C1 [Example 379],1660 nM,0.834 nM
CCN(CC)C(=O)OC1CN(C(=O)N[S@@]2(=O)=NC(=O)c3ccc4c(c3)N(C[C@@H]3CC[C@H]3[C@@H](OC)/C=C/C[C@H](C)C2)C[C@@]2(CCCc3cc(Cl)ccc32)CO4)C1 [Example 226],71.3 nM,0.095 nM
CO[C@H]1/C=C/C[C@H](C)C[S@@](=O)(NC(=O)c2cc3n(c2)CC=C3)=NC(=O)c2ccc3c(c2)N(C[C@@H]2CC[C@H]21)C[C@@]1(CCCc2cc(Cl)ccc21)CO3 [Example 135],132 nM,0.213 nM
CC#CC(=O)N[S@@]1(=O)=NC(=O)c2ccc3c(c2)N(C[C@@H]2CC[C@H]2[C@@H](OC)/C=C/CCC1)C[C@@]1(CCCc2cc(Cl)ccc21)CO3 [Example 33],7440 nM,2.9 nM
CO[C@H]1/C=C/C[C@H](C)C[S@@](=O)(NC(=O)N[C@H]2C[C@@](O)(C(F)(F)F)C2)=NC(=O)c2ccc3c(c2)N(C[C@@H]2CC[C@H]21)C[C@@]1(CCCc2cc(Cl)ccc21)CO3 [Example 453],96.7 nM,0.092 nM
CO[C@H]1/C=C/C[C@H](C)C[S@@](=O)(NC(=O)N2CC(OC)(c3ncnn3C)C2)=NC(=O)c2ccc3c(c2)N(C[C@@H]2CC[C@H]21)C[C@@]1(CCCc2cc(Cl)ccc21)CO3 [Example 277],60.9 nM,0.061 nM
CO[C@H]1/C=C/C[C@H](C)C[S@@](=O)(NC(=O)N[C@H]2C[C@@H](OC)C2)=NC(=O)c2ccc3c(c2)N(C[C@@H]2CC[C@H]21)C[C@@]1(CCCc2cc(Cl)ccc21)CO3 [Example 149],95.3 nM,0.109 nM
CO[C@H]1/C=C/C[C@H](C)C[S@@](=O)(NC(=O)c2cn(C)nc2N(C)C)=NC(=O)c2ccc3c(c2)N(C[C@@H]2CC[C@H]21)C[C@@]1(CCCc2cc(Cl)ccc21)CO3 [Example 213],57 nM,0.076 nM
CO[C@H]1/C=C/C[C@H](C)C[S@@](=O)(NC(=O)[C@H]2C[C@@H](OC)C2)=NC(=O)c2ccc3c(c2)N(C[C@@H]2CC[C@H]21)C[C@@]1(CCCc2cc(Cl)ccc21)CO3 [Example 127],158 nM,0.085 nM
CO[C@H]1/C=C/C[C@H](C)C[S@@](=O)(NC(=O)N2CC(OC3CC3)C2)=NC(=O)c2ccc3c(c2)N(C[C@@H]2CC[C@H]21)C[C@@]1(CCCc2cc(Cl)ccc21)CO3 [Example 263],62.2 nM,0.073 nM
COC[C@@H]1CC[C@H]1NC(=O)N[S@@]1(=O)=NC(=O)c2ccc3c(c2)N(C[C@@H]2CC[C@H]2[C@@H](OC)/C=C/C[C@H](C)C1)C[C@@]1(CCCc2cc(Cl)ccc21)CO3 [Example 307],96.8 nM,0.12 nM
CO[C@H]1/C=C/C[C@H](C)C[S@@](=O)(NC(=O)N2CC(C(F)F)C2)=NC(=O)c2ccc3c(c2)N(C[C@@H]2CC[C@H]21)C[C@@]1(CCCc2cc(Cl)ccc21)CO3 [Example 351],58.8 nM,0.035 nM
CC[C@H]1C/C=C/[C@H](OC)[C@@H]2CC[C@H]2CN2C[C@@]3(CCCc4cc(Cl)ccc43)COc3ccc(cc32)C(=O)N=[S@](=O)(NC(=O)c2cn(C)nc2OC)C1 [Example 220],97.8 nM,0.122 nM
CO[C@H]1/C=C/C[C@H](C)C[S@@](=O)(NC(=O)c2cc3n(c2)CCOC3)=NC(=O)c2ccc3c(c2)N(C[C@@H]2CC[C@H]21)C[C@@]1(CCCc2cc(Cl)ccc21)CO3 [Example 139],94.1 nM,0.116 nM
COc1nn(C)cc1C(=O)N[S@@]1(=O)=NC(=O)c2ccc3c(c2)N(C[C@@H]2CC[C@H]2[C@@H](OC)CCC[C@H](C)C1)C[C@@]1(CCCc2cc(Cl)ccc21)CO3 [Example 240],91.5 nM,0.018 nM
COC(=O)N1CC[C@@H](C(=O)N[S@@]2(=O)=NC(=O)c3ccc4c(c3)N(C[C@@H]3CC[C@H]3[C@@H](OC)/C=C/C[C@H](C)C2)C[C@@]2(CCCc3cc(Cl)ccc32)CO4)C1 [Example 438],278 nM,0.187 nM
CO[C@H]1/C=C/C[C@H](C)C[S@@](=O)(NC(=O)c2cc3n(c2)CCc2c-3cnn2C)=NC(=O)c2ccc3c(c2)N(C[C@@H]2CC[C@H]21)C[C@@]1(CCCc2cc(Cl)ccc21)CO3 [Example 208],45 nM,0.136 nM

Compound,EC50 (SKBR3 cells),IC50 [1]
CO[C@H]1/C=C/C[C@H](C)C[S@@](=O)(NC(=O)c2cn(C)nc2OCCN2CCOCC2)=NC(=O)c2ccc3c(c2)N(C[C@@H]2CC[C@H]21)C[C@@]1(CCCc2cc(Cl)ccc21)CO3 [Example 319],19.9 nM,0.038 nM
CO[C@H]1/C=C/CCC[S@@](=O)(NC(=O)CC2CC2)=NC(=O)c2ccc3c(c2)N(C[C@@H]2CC[C@H]21)C[C@@]1(CCCc2cc(Cl)ccc21)CO3 [Example 21],1300 nM,0.8 nM
CO[C@H]1/C=C/C[C@H](C)C[S@@](=O)(NC(=O)N2CC(N(C)C)C2)=NC(=O)c2ccc3c(c2)N(C[C@@H]2CC[C@H]21)C[C@@]1(CCCc2cc(Cl)ccc21)CO3 [Example 333],38.3 nM,0.039 nM
CC[C@@H]1CC1NC(=O)N[S@@]1(=O)=NC(=O)c2ccc3c(c2)N(C[C@@H]2CC[C@H]2[C@@H](OC)/C=C/C[C@H](C)C1)C[C@@]1(CCCc2cc(Cl)ccc21)CO3 (some centres unmarked) [Example 199],58.2 nM,0.117 nM
"CO[C@H]1/C=C/C[C@H](C)C[S@@](=O)(NC(=O)N[C@@H]2C[C@]2(C)OC)=NC(=O)c2ccc3c(c2)N(C[C@@H]2CC[C@H]21)C[C@@]1(CCCc2cc(Cl)ccc21)CO3 (single isomer, unassigned) [Example 312]",43.5 nM,0.039 nM
CO[C@H]1/C=C/C[C@H](C)C[S@@](=O)(NC(=O)N[C@@H]2[C@@H]3COC[C@@H]32)=NC(=O)c2ccc3c(c2)N(C[C@@H]2CC[C@H]21)C[C@@]1(CCCc2cc(Cl)ccc21)CO3 [Example 449],147 nM,0.131 nM
COc1nn(C)cc1C(=O)N[S@@]1(=O)=NC(=O)c2ccc3c(c2)N(C[C@@H]2CC[C@H]2[C@@H](OC(=O)N(C)C)/C=C/C[C@H](C)C1)C[C@@]1(CCCc2cc(Cl)ccc21)CO3 [Example 404],197 nM,0.092 nM
COc1cc(C(=O)N[S@@]2(=O)=NC(=O)c3ccc4c(c3)N(C[C@@H]3CC[C@H]3[C@@H](OC)/C=C/C[C@H](C)C2)C[C@@]2(CCCc3cc(Cl)ccc32)CO4)c(OC)nn1 [Example 278],80.5 nM,0.089 nM
CO[C@H]1/C=C/CCC[S@@](=O)(NC(=O)CCc2cnn(C)n2)=NC(=O)c2ccc3c(c2)N(C[C@@H]2CC[C@H]21)C[C@@]1(CCCc2cc(Cl)ccc21)CO3 [Example 46],512 nM,0.1 nM
CO[C@H]1/C=C/[C@H](OC)[C@H](C)C[S@@](=O)(NC(=O)N[C@H]2CC2C(F)F)=NC(=O)c2ccc3c(c2)N(C[C@@H]2CC[C@H]21)C[C@@]1(CCCc2cc(Cl)ccc21)CO3 (some centres unmarked) [Example 227],21.3 nM,0.076 nM
CNCCO[C@H]1/C=C/[C@H](OC)[C@@H]2CC[C@H]2CN2C[C@@]3(CCCc4cc(Cl)ccc43)COc3ccc(cc32)C(=O)N=[S@](=O)(NC(=O)c2cn(C)nc2OC)C[C@H]1C [Example 386],83.8 nM,0.048 nM
CO[C@H]1/C=C/C[C@H](C)C[S@@](=O)(NC(=O)N2CC(OC(=O)N3CCCCC3)C2)=NC(=O)c2ccc3c(c2)N(C[C@@H]2CC[C@H]21)C[C@@]1(CCCc2cc(Cl)ccc21)CO3 [Example 385],222 nM,0.128 nM
CO[C@H]1/C=C/C[C@H](C)C[S@@](=O)(NC(=O)N[C@@H]2CCOC2)=NC(=O)c2ccc3c(c2)N(C[C@@H]2CC[C@H]21)C[C@@]1(CCCc2cc(Cl)ccc21)CO3 [Example 155],43 nM,0.06 nM
CO[C@H]1/C=C/CCC[S@@](=O)(NC(=O)CCc2ccncn2)=NC(=O)c2ccc3c(c2)N(C[C@@H]2CC[C@H]21)C[C@@]1(CCCc2cc(Cl)ccc21)CO3 [Example 38],280 nM,0.2 nM
CO[C@H]1/C=C/C[C@H](C)C[S@@](=O)(NC(=O)c2csc(C)n2)=NC(=O)c2ccc3c(c2)N(C[C@@H]2CC[C@H]21)C[C@@]1(CCCc2cc(Cl)ccc21)CO3 [Example 146],185 nM,0.062 nM
CO[C@H]1CCC[C@H](C)C[S@@](=O)(NC(=O)NC2CC2)=NC(=O)c2ccc3c(c2)N(C[C@@H]2CC[C@H]21)C[C@@]1(CCCc2cc(Cl)ccc21)CO3 [Example 170],210 nM,0.06 nM
CO[C@H]1/C=C/CCC[S@@](=O)(NC(=O)NCc2cnccn2)=NC(=O)c2ccc3c(c2)N(C[C@@H]2CC[C@H]21)C[C@@]1(CCCc2cc(Cl)ccc21)CO3 [Example 80],1060 nM,0.3 nM
CO[C@H]1/C=C/C[C@H](C)C[S@@](=O)(NC(=O)C2CC(O)(C(F)(F)F)C2)=NC(=O)c2ccc3c(c2)N(C[C@@H]2CC[C@H]21)C[C@@]1(CCCc2cc(Cl)ccc21)CO3 (some centres unmarked) [Example 198],104 nM,0.043 nM
